Key:
Parameters in all cases: species or system AML cell lines (8); Primary HTS, single concentration about 10 uM, Cell Titer Glo viability; log10 luminescence, per cent inhibition relative to cycloheximide control
Conditions in all cases: 72 h, relative to cycloheximide control, log10 luminescence; inhibitor
[1] = test system: ML-2
[2] = test system: U937
[3] = test system: M07e
[4] = test system: CMK
[5] = test system: CHRF288-11
[6] = test system: MOLM-13
[7] = test system: MV4-11
[8] = test system: CMS

SMILES: COC(=O)c1ccc2c(c1)C(=Cc1cc(Br)c(O)c(Br)c1)C(=O)N2 [SJ000573242-1, U8097/138/1]
- ML-2 %inh [1]: 8.878%
- U937 %inh [2]: 4.474%
- M07e %inh [3]: 3.423%
- CMK %inh [4]: 10.16%
- CHRF288-11 %inh [5]: 6.512%
- MOLM-13 %inh [6]: 7.69%
- MV4-11 %inh [7]: 16.92%
- CMS %inh [8]: 10.7%

SMILES: NCc1ccc(-c2nc(-c3ccc(Cl)c(O)c3)c(-c3ccncc3)[nH]2)cc1 [SJ000573243-1, AN48585-012A1]
- ML-2 %inh [1]: 1.975%
- U937 %inh [2]: -0.0474%
- M07e %inh [3]: 3.038%
- CMK %inh [4]: 0.6536%
- CHRF288-11 %inh [5]: -2.078%
- MOLM-13 %inh [6]: 4.769%
- MV4-11 %inh [7]: 1.86%
- CMS %inh [8]: -0.03858%

SMILES: CCn1c(-c2nonc2N)nc2cnc(Oc3cccc(NC(=O)c4ccc(N(C)C)cc4)c3)cc21 [SJ000573244-1, DG202759-186A1]
- ML-2 %inh [1]: 13.68%
- U937 %inh [2]: 5.13%
- M07e %inh [3]: -4.099%
- CMK %inh [4]: 54.89%
- CHRF288-11 %inh [5]: 1.25%
- MOLM-13 %inh [6]: 0.8338%
- MV4-11 %inh [7]: 28.29%
- CMS %inh [8]: 1.931%

SMILES: CC(=O)NCc1cccc(C#Cc2cncnc2Nc2ccc(OCc3cccc(F)c3)c(Cl)c2)c1 [SJ000573245-1, U17810/92/1]
- ML-2 %inh [1]: 1.051%
- U937 %inh [2]: 4.477%
- M07e %inh [3]: 1.428%
- CMK %inh [4]: 4.208%
- CHRF288-11 %inh [5]: -2.703%
- MOLM-13 %inh [6]: 4.772%
- MV4-11 %inh [7]: 1.627%
- CMS %inh [8]: 2.982%

SMILES: CN1CCC(n2cnc(-c3ccc(F)cc3)c2-c2ccnc(NCCO)n2)CC1 [SJ000573246-1, TG19207-178A1]
- ML-2 %inh [1]: 6.134%
- U937 %inh [2]: 1.73%
- M07e %inh [3]: 3.039%
- CMK %inh [4]: 15.99%
- CHRF288-11 %inh [5]: 13.91%
- MOLM-13 %inh [6]: 21.36%
- MV4-11 %inh [7]: 13.81%
- CMS %inh [8]: -0.04607%

SMILES: c1ccc(Cc2nc3ccc(Nc4ncnc5ccccc45)cc3[nH]2)cc1 [SJ000573247-1, C3072/110/1]
- ML-2 %inh [1]: 2.215%
- U937 %inh [2]: -1.321%
- M07e %inh [3]: 0.8889%
- CMK %inh [4]: -4.013%
- CHRF288-11 %inh [5]: 3.355%
- MOLM-13 %inh [6]: 6.702%
- MV4-11 %inh [7]: 1.262%
- CMS %inh [8]: 0.8443%

SMILES: COc1ccc2cc(-c3c(-c4ccncc4)nc(-c4ccc([S+](C)[O-])cc4C)n3C)ccc2c1 (stereo not shown) [SJ000573248-1, NJ44157-082A1]
- ML-2 %inh [1]: 0.217%
- U937 %inh [2]: 1.089%
- M07e %inh [3]: 7.477%
- CMK %inh [4]: 1.35%
- CHRF288-11 %inh [5]: 5.983%
- MOLM-13 %inh [6]: 2.934%
- MV4-11 %inh [7]: 7.703%
- CMS %inh [8]: 2.672%

SMILES: CNC(=O)c1cncc(/C=C/c2c(C)cccc2C)c1 [SJ000573249-1, U12068/55/2]
- ML-2 %inh [1]: 1.303%
- U937 %inh [2]: -0.6106%
- M07e %inh [3]: 6.499%
- CMK %inh [4]: 2.958%
- CHRF288-11 %inh [5]: 2.946%
- MOLM-13 %inh [6]: 0.7031%
- MV4-11 %inh [7]: 1.251%
- CMS %inh [8]: 2.842%

SMILES: FC(F)(F)c1cccc(Nc2nccc(-c3cnn4nc(-c5ccccc5)ccc34)n2)c1 [SJ000573250-1, U17838/151/2]
- ML-2 %inh [1]: -0.4365%
- U937 %inh [2]: -0.9941%
- M07e %inh [3]: 2.996%
- CMK %inh [4]: 0.1975%
- CHRF288-11 %inh [5]: 8.085%
- MOLM-13 %inh [6]: 2.078%
- MV4-11 %inh [7]: 3.227%
- CMS %inh [8]: 3.035%

SMILES: NC(=O)c1ccc(-c2nc(-c3ccccn3)c(-c3ccc4c(c3)OCO4)[nH]2)cc1 [SJ000573251-1, TH48888-160A1]
- ML-2 %inh [1]: 2.652%
- U937 %inh [2]: -1.697%
- M07e %inh [3]: 3.715%
- CMK %inh [4]: 9.718%
- CHRF288-11 %inh [5]: 1.837%
- MOLM-13 %inh [6]: 3.34%
- MV4-11 %inh [7]: 2.981%
- CMS %inh [8]: 1.606%

SMILES: Fc1cccc(COc2ccc(Nc3ncnc4cc(-c5ccc[nH]5)sc34)cc2Cl)c1 [SJ000573252-1, U16950/26/1]
- ML-2 %inh [1]: 17.93%
- U937 %inh [2]: 11.09%
- M07e %inh [3]: 5.221%
- CMK %inh [4]: 115.2%
- CHRF288-11 %inh [5]: 1.14%
- MOLM-13 %inh [6]: 14.24%
- MV4-11 %inh [7]: 9.963%
- CMS %inh [8]: 15.37%

SMILES: COc1ccccc1-c1cc(/C=C2\C(=O)Nc3ncc(Br)cc32)cc(Br)c1O [SJ000573253-1, U16719/161/1]
- ML-2 %inh [1]: 1.918%
- U937 %inh [2]: -3.171%
- M07e %inh [3]: 2.858%
- CMK %inh [4]: 2.536%
- CHRF288-11 %inh [5]: -3.427%
- MOLM-13 %inh [6]: -1.113%
- MV4-11 %inh [7]: 0.2955%
- CMS %inh [8]: -1.153%

SMILES: OCc1ccc(-c2nc(-c3ccc4c(c3)OCO4)c(-c3ccccn3)[nH]2)cc1 [SJ000573254-1, FH98924-116A1]
- ML-2 %inh [1]: 2.365%
- U937 %inh [2]: -3.528%
- M07e %inh [3]: 0.7981%
- CMK %inh [4]: -1.373%
- CHRF288-11 %inh [5]: -3.015%
- MOLM-13 %inh [6]: 0.3005%
- MV4-11 %inh [7]: -0.8385%
- CMS %inh [8]: 0.5352%

SMILES: COc1cc2ncn(-c3cc(OCc4cccs4)c(C(N)=O)s3)c2cc1OC [SJ000573255-1, U21051/7/15]
- ML-2 %inh [1]: 24.59%
- U937 %inh [2]: 17.16%
- M07e %inh [3]: 12.77%
- CMK %inh [4]: -3.278%
- CHRF288-11 %inh [5]: 6.199%
- MOLM-13 %inh [6]: 63.69%
- MV4-11 %inh [7]: 6.732%
- CMS %inh [8]: 9.159%

SMILES: CC1=C(C(=O)Nc2ccc3[nH]ncc3c2)C(c2ccc(Cl)c(Cl)c2)CC(=O)N1 (stereo not shown) [SJ000573256-1, SD205340-087A3]
- ML-2 %inh [1]: 6.91%
- U937 %inh [2]: 2.616%
- M07e %inh [3]: 6.129%
- CMK %inh [4]: 25.41%
- CHRF288-11 %inh [5]: 13.93%
- MOLM-13 %inh [6]: 0.01758%
- MV4-11 %inh [7]: 13.75%
- CMS %inh [8]: 3.826%

SMILES: C[C@@H](Oc1cc(-n2cnc3ccc(OCC4CCN(C)CC4)cc32)sc1C(N)=O)c1ccccc1C(F)(F)F [SJ000573257-1, U20395/196/2]
- ML-2 %inh [1]: 59.84%
- U937 %inh [2]: 73.66%
- M07e %inh [3]: 98.02%
- CMK %inh [4]: 97.6%
- CHRF288-11 %inh [5]: 130.5%
- MOLM-13 %inh [6]: 108.4%
- MV4-11 %inh [7]: 86.97%
- CMS %inh [8]: 75.53%

SMILES: CNC(=O)c1cncc(/C=C/c2c(Cl)cccc2Cl)c1 [SJ000573258-1, U12068/57/2]
- ML-2 %inh [1]: -0.3801%
- U937 %inh [2]: 3.831%
- M07e %inh [3]: 7.169%
- CMK %inh [4]: 4.903%
- CHRF288-11 %inh [5]: -0.5271%
- MOLM-13 %inh [6]: 2.751%
- MV4-11 %inh [7]: 3.453%
- CMS %inh [8]: 3.911%

SMILES: COc1ccc(Nc2ncc(-c3ccccc3)o2)cc1OC [SJ000573259-1, U14961/58/1]
- ML-2 %inh [1]: 4.567%
- U937 %inh [2]: -1.171%
- M07e %inh [3]: 6.596%
- CMK %inh [4]: 5.775%
- CHRF288-11 %inh [5]: -4.817%
- MOLM-13 %inh [6]: 83.48%
- MV4-11 %inh [7]: 88.15%
- CMS %inh [8]: 0.9883%

SMILES: Fc1ccc(-c2nn3ccccc3c2-c2ccncc2)cc1 [SJ000573260-1, U11781/145/5]
- ML-2 %inh [1]: -1.762%
- U937 %inh [2]: 4.651%
- M07e %inh [3]: 0.2861%
- CMK %inh [4]: 8.765%
- CHRF288-11 %inh [5]: -2.859%
- MOLM-13 %inh [6]: 0.1728%
- MV4-11 %inh [7]: 4.558%
- CMS %inh [8]: -2.539%

SMILES: CCn1c(-c2nonc2N)nc2c(N3CCCC3)nccc21 [SJ000573261-1, DW100508-128A1]
- ML-2 %inh [1]: 3.187%
- U937 %inh [2]: -1.967%
- M07e %inh [3]: 5.656%
- CMK %inh [4]: 3.861%
- CHRF288-11 %inh [5]: 2.981%
- MOLM-13 %inh [6]: 1.048%
- MV4-11 %inh [7]: 6.029%
- CMS %inh [8]: 5.321%

SMILES: Fc1cccc(COc2ccc(Nc3ncncc3C#Cc3ccccc3)cc2Cl)c1 [SJ000573262-1, U15872/50/1]
- ML-2 %inh [1]: 1.8%
- U937 %inh [2]: 1.725%
- M07e %inh [3]: -0.005299%
- CMK %inh [4]: -0.522%
- CHRF288-11 %inh [5]: -1.921%
- MOLM-13 %inh [6]: -0.1156%
- MV4-11 %inh [7]: 1.812%
- CMS %inh [8]: -2.059%

SMILES: COc1cc(/C=N/Nc2ncnc3[nH]ncc23)ccc1O [SJ000573263-1, U15117/8/1]
- ML-2 %inh [1]: 0.3724%
- U937 %inh [2]: 2.504%
- M07e %inh [3]: 4.954%
- CMK %inh [4]: 1.246%
- CHRF288-11 %inh [5]: 2.923%
- MOLM-13 %inh [6]: 34.62%
- MV4-11 %inh [7]: 32.98%
- CMS %inh [8]: 3.056%

SMILES: CCN1CCC(CC(=O)Nc2n[nH]c3nc(-c4cccs4)c(Br)cc23)CC1 [SJ000573264-1, AG201339-025C2]
- ML-2 %inh [1]: -1.837%
- U937 %inh [2]: 1.142%
- M07e %inh [3]: 7.209%
- CMK %inh [4]: 18.01%
- CHRF288-11 %inh [5]: 10.8%
- MOLM-13 %inh [6]: 8.584%
- MV4-11 %inh [7]: 29.41%
- CMS %inh [8]: 7.013%

Source: PMC6522510 (Nature Communications, 2019)
